These results are taken from patent US9642780B2, “Detection and removal of carious dentin tissue” (RLS Global AB, priority 2011, dated 2017).

Entries after “also recorded” stand apart in the source; their conditions may differ.

Test [1] relates to carious dentin tissue of a pre molar tooth. The test can be described thus: Staining of a pre molar tooth with Alexa 594 and removal with a dentist's drill. The following applies: 15-50 mM aqueous solution, drilling and staining repeated several times. The method, then: Carious dentin tissue of a pre molar tooth stained with an aqueous solution of the hydrazine derivative Alexa 594 in a concentration of 15-50 mM was subjected to mechanical treatment by a dentist's drill until no staining could be visually detected. […] The stained surface was subjected to drilling until no staining could be visually detected. A dentist examined the surface visually and with a tactile instrument and concluded that the surface was free of caries. […] Again, drilling of the stained surface took place until no staining could be observed. […] Drilling and staining as described above in this example was repeated several times. […] It was concluded that selective detection and removal of carious dentin tissue using a hydrazine derivative in combination with a dentist's drill was not possible. […] This is in contrast to the successful selective detection and removal of carious dentin tissue using a hydrazine derivative in combination with a chemical means for treatment of carious dentin tissue as described in Example 5.

For test [2], the system named is carious tissue in caries infected tooth slices. The test can be described thus: Staining of caries infected tooth slices with colours, then washing with MQ water, NaCl and NaOH. The following applies: for staining of the tooth slice after NaCl and NaOH (Day 4): after NaCl 1 M and NaOH 0.5 M over night, visible light, UV or fluorescence microscopy; for kind of binding to carious tissue in infected teeth (conclusion): concluded from staining after NaCl and NaOH washes.
Experimental: This experiment aimed to see if the added colours SEEK, Acid red 1, Lucifer Yellow, a combination of Lucifer Yellow and Acid red 1, or 5-(2-2-hydrazinyl-2-oxoethylthio)acetamido)-2-(3-hydroxy-6-oxo-6H-xanthen-9-yl)benzoic acid, Alexa Fluor® 594 and Alexa 350 bind to the surface of caries or not, after excavation down to a clinically caries free denoted surface. Experiments were performed during 4 days.
Whole caries infected tooth was added to an ortho acryl gel, which after hardening was used as a holder prior to sawing (saw of brand Zaw Micro Tone, German). Slices, having a thickness of 150 μm, were left over night in each colour to be tested (Day one). On the second day, the colours were washed out by rinsing the slices with MQ water and the teeth sections were photographed under either a microscope (6.7×; visible light), in UV (no microscope) or under a fluorescence microscope (100×). Thereafter, an aqueous salt solution (NaCl, 1 M) was added to the slices and incubated over night. On the third day the slices were washed with MQ water and thereafter the same detection procedures were used as described above. Finally the tooth slices were exposed to an aqueous solution of NaOH (0.5 M) over night. The washing and detection path were then repeated as described previously (Day 4).

Test [3] relates to carious dentin tissue of a pre molar tooth. The test can be described thus: Staining of a pre molar tooth cavity with Alexa 594 and removal with Carisolv and hand instrument. The method, then:
Carious dentin tissue of a pre molar tooth was treated with Carisolv® to obtain a cavity and subsequently stained with an aqueous solution of the hydrazine derivative Alexa 594.
The concentration of the aqueous solution of the hydrazine derivative Alexa 594 was 15-50 mM. […] Carisolv® was added to the cavity and excavation took place with a hand instrument from Mediteam Dental AB to reach a carious free level. […] A dentist performed tactile control of this surface and confirmed that the surface was free of caries. […] The slightly stained surface was subjected to treatment with Carisolv® followed by excavation with a hand instrument. […] It was concluded that a hydrazine derivative such as Alexa 594 can be used in combination with a chemical means for carious dentin tissue such as Carisolv® for selective detection and removal of carious dentin tissue.

The test system of test [4] is carious dentin tissue. The test can be described thus: Rinsing of carious dentin tissue labelled with a dye.
Test [5] relates to healthy dentin tissue. The test can be described thus: TOF-SIMS of healthy dentin tissue treated with Lucifer Yellow. The following applies: positive mass spectra, treated similar to untreated.
The subject of test [6] is carious dentin tissue. In words: FTIR of carious dentin tissue treated with Lucifer Yellow. Further details: species or system human. The text has this:
(§1) Extracted permanent human teeth with no previous dental restorations were selected due to their severe carious tissue status and analysed with FTIR within one week after extraction. The outermost part of the carious dental lesions was removed. The remaining dental carious tissue was divided into two layers; one outer layer with discoloured, soft and infected dental carious tissue and one inner layer that was excavated down to the observed uncoloured hard surface of the remaining healthy dentin controlled by tactile procedures.
(§2) Healthy dentin tissue and carious dentin tissue from the innermost layer were collected. This healthy dentin tissue sample and carious dentin tissue sample were then each divided into three samples.
The healthy dentin tissue sample (26 mg) was divided and treated as follows. […] Fluorescence of bounded hydrazine derivate Lucifer Yellow was checked by a UV lamp. […] The third sample, hereinafter denominated sample S3, (7 mg) and the last procedure was treated with NaBH4 (0.5 M in ethanol) and washed with concentrated ethanol to reduce aldehydes and ketones before the addition of an aqueous solution of the hydrazine derivate Lucifer Yellow (13 mM), repeated rinsing with purified water before dried and analysed. […]
(§3) Thus, in total 6 samples (three from the healthy dentin tissue and three from the carious dentin tissue) were analysed with FTIR within one week after extraction. […]

Test [7] relates to healthy dentin tissue. The test can be described thus: FTIR of healthy dentin tissue treated with Lucifer Yellow. The following applies: Lucifer Yellow 13 mM aqueous, overnight, no peak at 1740 cm−1 in any sample. Further details: species or system human.
Source text: as §1, §2
The healthy dentin tissue sample (26 mg) was divided and treated as follows. […] Fluorescence of bounded hydrazine derivate Lucifer Yellow was checked by a UV lamp. […] The third sample, hereinafter denominated sample S3, (7 mg) and the last procedure was treated with NaBH4 (0.5 M in ethanol) and washed with concentrated ethanol to reduce aldehydes and ketones before the addition of an aqueous solution of the hydrazine derivate Lucifer Yellow (13 mM), repeated rinsing with purified water before dried and analysed.
as §3

The test system of test [8] is carious dentin tissue. The test can be described thus: TOF-SIMS of carious dentin tissue treated with Lucifer Yellow. The method, then:
FTIR-ATR and TOF-SIMS analyses were performed on a sample group consisting of carious tissue inner most layers selected and estimated with an exactness of a working dentist. Samples were pooled from 4-6 teeth of inner layer of carious tissue (37 mg). The pooled sample was divided into two subgroups where one was exposed to the hydrazine derivate Lucifer Yellow and further analysed with TOF-SIMS and the other only analysed with FTIR-ATR. An aqueous solution of the hydrazine derivate Lucifer Yellow (1.8 mM) was added to the inner layer carious tissue (19 mg) and after 1 hour exposure washed with an aqueous solution of NaOH (0.5 M) and purified water before dried over vacuum. Events prolonged under a couple of hours from extraction to excavation to the drying and milling of the substances. Both FTIR-ATR and TOF-SIMS followed. FTIR-ATR was performed as described in Example 3 above. […] Each sample was attached to double side tape and analysed with a TOF-SIMS instrument (TOF-SIMS IV, CAMECA/IONTOF, GmbH, Germany). Positive secondary ion mass spectra were recorded from different areas of the sample at a size of […] and separated in a mass analyser and next compared with known mass spectra from the Ion Spec application (IonTof, GmbH, Germany, ver. 4.1) linked with the TOF-SIMS instrument. Negative secondary ion mass spectra were also recorded but gave no further information. […]

Take “6-(2-carboxy-5-(hydrazinecarbonyl)phenyl)-1,2,2,10,10,11-hexamethyl-2,10-dihydro-1H-pyrano[3,2-g]diquinoline-11-ium-4,8-diyl)methanesulfonate [Alexa Fluor® 594]”: the “staining of the surface after drilling until no staining visible” value in test [1] is “staining always took place after the drilling had been performed”. For the same compound, the “staining of the tooth slice after NaCl and NaOH (Day 4)” value (shortened to “staining of the tooth slice … (Day 4)”) in test [2] is “still contained colourants”; in test [2] (listed as Alexa Fluor 594®), “staining”. Also, in test [2], the “kind of binding to carious tissue in infected teeth (conclusion)” value (“kind of binding to carious tissue” for short) is reported as “bind irreversibly”. Moreover, the “sensitivity of caries detection compared with tactile control by a dentist” value in test [3] is “better and more sensitive method for detecting carious dentin tissue than tactile control”. For the same compound, the “staining of the cavity, first staining” value in test [3] (15-50 mM aqueous solution, cavity obtained with Carisolv) is recorded as “intense dark bluish colour”. For the same compound, the “staining of the surface after second Carisolv treatment and excavation” value in test [3] (final attempt to stain) is reported as “no staining took place”. Further, the “staining of the surface after first Carisolv treatment and excavation” value in test [3] (surface judged free of caries by dentist's tactile control) was “very slight staining at the center of the cavity”.

For `NNC(=O)CSCC(=O)Nc1ccc(-c2c3ccc(=O)cc-3oc3cc(O)ccc23)c(C(=O)O)c1` [5-(2-2-hydrazinyl-2-oxoethylthio)acetamido)-2-(3-hydroxy-6-oxo-6H-xanthen-9-yl)benzoic acid], in test [2], the “staining of the tooth slice … (Day 4)” value was “still contained colourants; also recorded: staining”; the “kind of binding to carious tissue” value is “bind irreversibly”.

For the compound `CC(=O)Nc1cc(S(=O)(=O)[O-])cc2cc(S(=O)(=O)[O-])c(/N=N/c3ccccc3)c(O)c12.[Na+].[Na+]` [Acid red 1, reference compound], the “staining of the tooth slice after incubation with 1 M NaCl” value in test [2] (150 μm slices left over night in colour, rinsed with MQ water, NaCl 1 M over night) was “only little staining remained”. In addition, in test [2], the “staining of the tooth slice … (Day 4)” value is “no colouring of the slice treated with Acid red 1 could be detected using visible light and barely with microscope”; the “kind of binding to carious tissue” value is listed as “binds in a reversible way”. In the test on carious dentin tissue [4], the “effect of rinsing on dye bonded to carious dentin tissue” value is recorded as “release of the dye bonded to the carious dentine tissue”.

Turning to `Cc1c(CC(=O)NN)c(=O)oc2cc(N)c(S(=O)(=O)O)cc12` [Alexa 350], in test [2], the “staining of the tooth slice … (Day 4)” value is “still contained colourants”; the “kind of binding to carious tissue” value is on record as “bind irreversibly”.

With `NNC(=O)NN1C(=O)c2cc(S(=O)(=O)O)cc3c(N)c(S(=O)(=O)O)cc(c23)C1=O` [Lucifer Yellow], the “reaction with healthy dentin (TOF-SIMS)” value with healthy dentin tissue [5] is listed as “did not react with healthy dentin”. For the same compound, in test [2], the “staining of the tooth slice … (Day 4)” value is given as “still contained colourants”; the “kind of binding to carious tissue” value is “bind irreversibly”. For the same compound, the “reaction with carious dentin tissue” value with carious dentin tissue [6] (FTIR, Lucifer Yellow 13 mM aqueous, overnight, peak at 1740 cm−1 no longer present) was “reaction has taken place”. For the same compound, in the test on carious dentin tissue [6] (concluded from FTIR of samples S1-S6), the “selectivity of reaction, carious versus healthy dentin tissue (FTIR)” value is given as “selectively reacts with carious dentin tissue”. Further, the “reaction with healthy dentin tissue” value in the test on healthy dentin tissue [7] was “no reaction takes place”. Moreover, the “bonding to carious dentin tissue (TOF-SIMS)” value in the test on carious dentin tissue [8] (Lucifer Yellow 1.8 mM, 1 hour, washed with NaOH 0.5 M, positive spectra, repeated difference of 106 mass units) is listed as “covalently bound to the carious tissue”. Further, in the test on carious dentin tissue [8] (concluded from TOF-SIMS spectra), the “selectivity of reaction, carious versus healthy dentin tissue (TOF-SIMS)” value was “selectively reacts with carious dentin tissue”.
